Reference: US20220323329A1, “ORAL HEALTH COMPOSITION AND PREPARATION PROCESS FOR ORAL HEALTH COMPOSITION” (MMF&T DESENVOLVIMENTO TECNOLÓGICO E INOVAÇÃO LTDA., priority 2019, published 2022)

Key:
[1] = test system: Enterococcus faecalis (ATCC 29212); test: Antimicrobial potential of phthalocyanine by direct contact; assay type: cell-based; conditions: different concentrations and timespans (10.000 mg and 1.000 mg, 24 hours in FIG. 3)
Experimental: (§1) Studies were carried out for the improvement of antimicrobial potential of phthalocyanines, in an intrinsic aim of developing toothpastes, such as dental creams and dental foams including phthalocyanine for in vitro studies and possibly also in vivo studies.
(§2) For this purpose, the following microorganisms were used: Streptococcus mutans (ATCC 25175); Candida albicans (ATCC 10231); Enterococcus faecalis (ATCC 29212); and Staphylococcus aureus (ATCC 6538).

[2] = test system: Candida albicans (ATCC 10231); test: as above; assay type: cell-based; conditions: different concentrations and timespans (10.000 mg and 1.000 mg, 24 hours in FIG. 2)
Experimental: as §1, §2

[3] = test system: Streptococcus mutans (ATCC 25175); test: as above; assay type: cell-based; conditions: different concentrations and timespans (10.000 mg and 1.000 mg, 3 and 5 minutes in FIGS. 5, 6)
Experimental: as §1, §2

[4] = test system: Staphylococcus aureus (ATCC 6538); test: as above; assay type: cell-based; conditions: different concentrations and timespans (10.000 mg and 1.000 mg, 24 hours in FIG. 4)
Experimental: as §1, §2

[5] = PDT with phthalocyanine-glucamine as PTS; rats; cited from earlier work

Compound	microbicidal action / inhibition of microbial growth [1]	microbicidal action / inhibition of microbial growth [2]	microbicidal action / inhibition of microbial growth [3]	microbicidal action / inhibition of microbial growth [4]	treatment of induced periodontal disease [5]
c1ccc2c(c1)-c1nc-2nc2[nH]c(nc3nc(nc4[nH]c(n1)c1ccccc41)-c1ccccc1-3)c1ccccc21 [phthalocyanine]	full inhibition of microbial growth	full inhibition of microbial growth	full inhibition of microbial growth	full inhibition of microbial growth	
phthalocyanine-glucamine					effective in the treatment of periodontal disease induced in rats
